Source: article PMC9658545, “From Nature to Synthetic Compounds: Novel 1(N),2,3 Trisubstituted-5-oxopyrrolidines Targeting Multiple Myeloma Cells” (International Journal of Molecular Sciences, 2022)
Converted amounts (≈) assume the structure as drawn. Where two headings read alike, the source gives them in different places. Values belong to the compound of their own block, whether it stands above or below them.

Legend:
RPMI 8226 cells [1] = assay: MTT assay of cell viability in RPMI 8226 cells; type: cell-based, Human; conditions: for fold more active than the reference compound Hib-ester: after 24 h of treatment; for profile in MTT and Trypan blue tests compared with racemate: enantiomers of 13, 10, 100 and 500 µM
Protocol: RPMI 8226 cells were treated with different concentrations of all compounds (10, 100 and 500 µM) at 24 h. The concentrations have been chosen based on the results previously obtained with Hib-ester. MTT assay was performed to assess cell viability and calculate the IC50 (Table 1). For compounds not showing a significant reduction of cell viability at the concentration of 500 µM, the IC50 was not calculated, and they have been considered not effective. Untreated cells were used as control (CTRL).
Human multiple myeloma RPMI 8226 cells were cultured in RPMI 1640 medium supplemented with 10% fetal bovine serum, 1% L-glutamine and 1% penicillin and streptomycin (Euroclone, Italy). Human glioblastoma U87-MG cells were cultured in DMEM low glucose supplemented with 10% fetal bovine serum, 1% L-glutamine and 1% penicillin and streptomycin (Euroclone, Italy). Cells were incubated in a humidified incubator at 37 °C and 5% CO2. A stock solution of all compounds in DMSO (50 mM) was prepared and then directly diluted in culture medium.
Cells were seeded in 96-well plates at a density of 1 × 10^4 cells/well and were treated after 24 h with RA, AM or SU molecules. After 24 h, a 3-(4,5-dimethylthiazol-2-yl)-2,5-diphenyltetrazolium bromide (MTT, Sigma Aldrich, United States) solution was added to each well to reach a final concentration of 0.5 mg/mL. After 4 h of incubation (4 h for RPMI 8226 cells), formazan salt was solubilized in ethanol and absorbance was measured at 570 nm in a microplate reader (BMG-Labtech, Ortenberg, Germany).

RPMI 8226 cells [2] = assay: MTT assay of cell viability in RPMI 8226 cells; type: cell-based, Human; conditions: for change of MTT efficacy over time: 24, 48 and 72 h; for IC50: Homo sapiens
proteasome [3] = target: T1, proteasome (Homo sapiens, UniProt P28074); assay: Proteasome activity assay on lysates of treated RPMI 8226 cells (Suc-LLVY-AMC substrate); type: cell-based; conditions: for proteasome inhibition activity: after 24 h, 10, 100 and 500 µM; for IC50: RPMI 8226 cells treated 24 h, read-out: IC50 (proteasome inhibition)
T1 construct: endogenous in cells; host or cells: RPMI 8226 (human multiple myeloma)
T1 sequence (P28074 60-263): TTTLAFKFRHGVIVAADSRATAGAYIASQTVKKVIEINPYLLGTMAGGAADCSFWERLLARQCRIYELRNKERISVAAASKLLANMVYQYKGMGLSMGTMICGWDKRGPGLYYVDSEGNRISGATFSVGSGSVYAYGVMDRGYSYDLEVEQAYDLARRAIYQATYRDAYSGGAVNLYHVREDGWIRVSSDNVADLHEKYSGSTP
Protocol: RPMI 8226 cells treated with Bortezomib (BTZ) 1, 5 and 10 nM were used as positive control for all experiments (Figure S2, Supplementary Information).
Cells not used in the Trypan blue assay were lysed to assess proteasome activity. Briefly, cells were resuspended in a lysis buffer (50 mM Hepes Ph 7.5, 150 mM NaCl, 10% glycerol, 1% Triton X-100, 1.5 mM MgCl2, 5 mM EGTA) and were mechanically lysed with a vortex. Obtained protein lysates were centrifuged at 13,500 RPM for 15 min and were quantified using the Bradford method. Some 40 µg of proteins were then loaded in black-96-well plate to perform the proteasome activity assay. In each well, 7.6 mg/mL proteasome substrate (N-Succinyl-Leu-Leu-Val-Tyr-7-Amido-4-Methylcoumarin, Sigma Aldrich, United States) and proteasome buffer (250 mM Hepes pH 7.5, 5 mM EDTA pH 8.0, 0.5% NP-40, 0.01% SDS) were added to the proteins. Fluorescence was measured after 2 h of incubation in a microplate reader (excitation 380 nm, emission 460 nm; BMG-Labtech, Ortenberg, Germany).
RPMI 8226 cells were treated with different concentrations (10, 100 and 500 µM) of each compound and, after 24 hours, proteasome activity assay was performed.
Supplementary Figure S1. Proteasome activity of RPMI 8226 cells treated with (2R,3R/2S,3S)-13, 14, 16 and 20. Proteasome activity was evaluated in cells treated for 24 hours with different concentrations (10, 100 and 500 µM) of compounds. The graphs represent the mean proteasome activity ± SD, compared to untreated controls, arbitrarily set to 100%. ** p < 0.01 vs CTRL.
RPMI 8226 cells treated with BTZ 1, 5 and 10 nM were used as positive control for all experiments. […]
The graphs represent the mean cell number ± SD of viable and dead cells. ** p < 0.01 vs CTRL; C) Proteasome activity of RPMI 8226 cells treated with BTZ. Proteasome activity was evaluated in cells treated for 24 hours with different concentrations (1, 5 and 10 nM) of BTZ. The graphs represent the mean proteasome activity ± SD, compared to untreated controls, arbitrarily set to 100%. ** p < […]

RPMI 8226 cells [4] = assay: Trypan blue vital count assay (viable and dead cells); type: cell-based, Human; conditions: 100 µM
Protocol: RPMI 8226 cells treated with Bortezomib (BTZ) 1, 5 and 10 nM were used as positive control for all experiments (Figure S2, Supplementary Information). Cells were seeded in 6-well plates at a density of 2.5 × 10^5 cells/well and were treated after 24 h with different concentrations of RA molecules. After 24 h of treatment, cells were collected and stained with Trypan blue vital dye (Sigma Aldrich, Burlington, VT, USA). Viable and dead cells were then counted in a hemocytometer under a light microscope.

[5] = tested on: human multiple myeloma RPMI 8226 cells; design: method as in PMID 31323932; conditions: at 24 h; cited from earlier work
[6] = design: method as in PMID 31323932; conditions: cited from earlier work
[7] = design: method as in PMID 31323932; conditions: cited from earlier work; remark: listed apart in the source
proteasome [8] = tested on: proteasome; design: method as in PMID 31323932; conditions: cited from earlier work
[9] = 24 h, MTT assay, concentrations 10, 100 and 500 µM, n.e.* = compounds not effective at 500 µM
[10] = Homo sapiens, RPMI-8226, 24 h, MTT assay, concentrations 10, 100 and 500 µM, n.e.* = compounds not effective at 500 µM, read-out: IC50 μM RPMI8226
[11] = Homo sapiens, RPMI-8226, 24 h of treatment, read-out: IC50 (MTT)
[12] = 24 h, MTT assay, concentrations 10, 100 and 500 µM, n.e.* = compounds not effective at 500 µM, read-out: IC50 μM RPMI8226
[13] = 24 h of treatment, read-out: IC50 (MTT)

- IC50 μM RPMI8226 (RPMI 8226 cells [1]; [9]): n.e.*
Compound: CC(C)CN1C(=O)CCC(C(=O)O)C1c1ccccc1 [(2R,3R/2S,3S)-17, 1-Isobutyl-6-oxo-2-phenylpiperidine 3-Carboxylic Acid]

- IC50 μM RPMI8226 (RPMI 8226 cells [1]; [9]): n.e.*
Compound: CCCCN1CC(C(=O)OC)CC1=O (racemic) [(S/R)-5, Methyl 1-Butyl-5-oxopyrrolidine-3-carboxylate]

- IC50 μM RPMI8226 (RPMI 8226 cells [1]; [9]): n.e.*
Compound: COC(=O)C1CC(=O)N(C)C1 (racemic) [(S/R)-7, Methyl 1-Methyl-5-oxopyrrolidine-3-carboxylate]

- IC50 μM RPMI8226 (RPMI 8226 cells [1]; [9]): n.e.*
Compound: CCCCN1CC(C(=O)O)CC1=O (racemic) [(S/R)-4]

- IC50 μM RPMI8226 (RPMI 8226 cells [1]; [9]): n.e.*
Compound: COC(=O)[C@@H]1CCC(=O)N1 [(S)-3, (S)-Methyl-5-oxopyrrolidine-2-carboxylate]

- IC50 μM RPMI8226 (RPMI 8226 cells [1]; [9]): n.e.*
Compound: O=C(O)C1CCC(=O)N(Cc2ccccc2)C1c1ccccc1 [(2R,3R/2S,3S)-19, 1-Benzyl-6-oxo-2-phenylpiperidine 3-Carboxylic Acid]

- IC50 (proteasome [3]): 189 ± 17 µM
Compound: O=C(O)C1CC(=O)N(Cc2ccccc2)C1c1ccccc1 (single isomer, unassigned; (+)) [(+)-(2S,3S)-13]
- profile in MTT and Trypan blue tests compared with racemate (RPMI 8226 cells [1]): less antiproliferative properties

- IC50 (proteasome [3]): 90 ± 8 µM
- activity relative to the opposite enantiomer in the biological assays (proteasome [3]; enantiomers of 13): twofold more active
Compound: O=C(O)C1CC(=O)N(Cc2ccccc2)C1c1ccccc1 (single isomer, unassigned; (-)) [(−)-(2R,3R)-13]
- profile in MTT and Trypan blue tests compared with racemate (RPMI 8226 cells [1]): profile comparable with racemate

More lines, now with the values behind:

Compound: O=C(O)C1CC(=O)N(Cc2ccccc2)C1c1ccccc1 (racemic) [(2R,3R/2S,3S)-13, 1-Benzyl-5-oxo-2-phenylpyrrolidine 3-Carboxylic Acid]
- IC50 (RPMI 8226 cells [1]; [10]): 169 ± 21 µM
- IC50 (RPMI 8226 cells [1]; [11]): < 350 µM
- fold more active than the reference compound Hib-ester (RPMI 8226 cells [1]): at least 6 fold
- change of MTT efficacy over time (RPMI 8226 cells [2]): time-dependent effect
- IC50 (RPMI 8226 cells [2]; RPMI-8226, 48 h): 85 µM
- IC50 (RPMI 8226 cells [2]; RPMI-8226, 72 h): 15 µM
- fold more active than Hib-ester in reducing RPMI 8226 cells growth (RPMI 8226 cells [2]; after 24 and 72 h of treatment): twelve-fold more active
- proteasome inhibition activity (proteasome [3]): most effective
- cell death (Trypan blue vital count) (RPMI 8226 cells [4]): significant increase in cell death

Compound: COC(=O)C1OC(=O)CC1(O)C(=O)OC (centres unmarked) [Hib-ester]
- IC50 (antiproliferative properties) [5]: 450 µg/mL (≈ 2060 µM)
- neurotoxic effects [6]: without neurotoxic effects
- effect on migration and cell invasion [7]: reduce migration and cell invasion
- proteasome inhibition (proteasome [8]): inhibit proteasome

Compound: Methyl 2-(3,5-Dimethoxyphenyl)-1-isobutyl-5-oxopyrrolidine-3-carboxylate [(2R,3R/2S,3S)-12]
- IC50 (RPMI 8226 cells [1]; [12]): 263 ± 41 µM
- IC50 (RPMI 8226 cells [1]; [13]): < 350 µM
- fold more active than the reference compound Hib-ester (RPMI 8226 cells [1]): at least 6 fold

Compound: COC(=O)C1CC(=O)N(CC(C)C)C1c1ccccc1 [(2R,3R/2S,3S)-10, Methyl 1-Isobutyl-5-oxo-2-phenylpyrrolidine-3-carboxylate]
- IC50 (RPMI 8226 cells [1]; [10]): 265 ± 49 µM
- IC50 (RPMI 8226 cells [1]; [11]): < 350 µM
- fold more active than the reference compound Hib-ester (RPMI 8226 cells [1]): at least 6 fold

Compound: COC(=O)C1CCC(=O)N(CC(C)C)C1c1ccccc1 [(2R,3R/2S,3S)-18, Methyl 1-Isobutyl-6-oxo-2-phenylpiperidine-3-carboxylate]
- IC50 (RPMI 8226 cells [1]; [10]): 301 ± 29 µM
- IC50 (RPMI 8226 cells [1]; [11]): < 350 µM
- fold more active than the reference compound Hib-ester (RPMI 8226 cells [1]): at least 6 fold

Compound: COC(=O)C1CNC(=O)C1 (racemic) [(S/R)-6]
- IC50 μM RPMI8226 (RPMI 8226 cells [1]; [9]): n.e.*

Compound: COC(=O)C1CC(=O)NC1C(=O)OC [(2R,3R/2S,3S)-8, Dimethyl 5-Oxopyrolidine-2,3-dicarboxylate]
- IC50 μM RPMI8226 (RPMI 8226 cells [1]; [9]): n.e.*

Compound: COC(=O)C1CC(=O)N(Cc2ccccc2)C1c1ccccc1 [(2R,3R/2S,3S)-14, Methyl 1-Benzyl-5-oxo-2-phenylpyrrolidine-3-carboxylate]
- IC50 (RPMI 8226 cells [1]; [10]): 61 ± 12 µM
- IC50 (RPMI 8226 cells [1]; [11]): < 350 µM
- fold more active than the reference compound Hib-ester (RPMI 8226 cells [1]): 34 fold
- fold more active than the reference compound Hib-ester (RPMI 8226 cells [1]; listed as 14): at least 6 fold
- change of MTT efficacy over time (RPMI 8226 cells [2]): time-dependent effect
- IC50 (RPMI 8226 cells [2]; RPMI-8226, 48 h): 43 µM
- IC50 (RPMI 8226 cells [2]; RPMI-8226, 72 h): 34 µM
- proteasome inhibition at the lowest evaluated concentration (proteasome [3]; 10 µM, 24 h): significant inhibition
- proteasome inhibition activity (proteasome [3]): most effective
- cell death (Trypan blue vital count) (RPMI 8226 cells [4]): significant increase in cell death

Compound: 1-Benzyl-2-(3,5-dimethoxyphenyl)-5-oxopyrrolidine-3-carboxylic Acid [(2R,3R/2S,3S)-15]
- IC50 μM RPMI8226 (RPMI 8226 cells [1]; [9]): n.e.*

Compound: Methyl 1-Benzyl-2-(3,5-dimethoxyphenyl)-5-oxopyrrolidine-3-carboxylate [(2R,3R/2S,3S)-16]
- IC50 (RPMI 8226 cells [1]; [12]): 138 ± 27 µM
- IC50 (RPMI 8226 cells [1]; [13]): < 350 µM
- fold more active than the reference compound Hib-ester (RPMI 8226 cells [1]): at least 6 fold
- change of MTT efficacy over time (RPMI 8226 cells [2]): did not show a significant increase in efficacy over time

Compound: COC(=O)[C@@H]1CC(=O)O[C@@H]1c1ccccc1 [(2R,3R/2S,3S)-2, Methyl (2S,3R)-5-Oxo-2phenyltetrahydrofuran-3-Carboxylate]
- IC50 μM RPMI8226 (RPMI 8226 cells [1]; [9]): n.e.*

Compound: 2-(3,5-Dimethoxyphenyl)-1-isobutyl-5-oxopyrrolidine-3-carboxylic Acid [(2R,3R/2S,3S)-11]
- IC50 μM RPMI8226 (RPMI 8226 cells [1]; [9]): n.e.*

Compound: COC(=O)C1CCC(=O)N(Cc2ccccc2)C1c1ccccc1 [(2R,3R/2S,3S)-20, Methyl 1-Benzyl-6-oxo-2-phenylpiperidine-3-carboxylate]
- IC50 (RPMI 8226 cells [1]; [10]): 152 ± 29 µM
- IC50 (RPMI 8226 cells [1]; [11]): < 350 µM
- fold more active than the reference compound Hib-ester (RPMI 8226 cells [1]): at least 6 fold
- change of MTT efficacy over time (RPMI 8226 cells [2]): did not show a significant increase in efficacy over time

Compound: CC(C)CN1C(=O)CC(C(=O)O)C1c1ccccc1 [(2R,3R/2S,3S)-9, 1-Isobutyl-5-oxo-2-phenylpyrrolidine 3-Carboxylic Acid]
- IC50 μM RPMI8226 (RPMI 8226 cells [1]; [9]): n.e.*
- melting point: 120.6 to 122.7 °C

Compound: O=C1CC(C(=O)O)C(c2ccccc2)O1 [(2R,3R/2S,3S)-1]
- IC50 μM RPMI8226 (RPMI 8226 cells [1]; [9]): n.e.*
